# Assay results from US20220273678A1 (priority 2020, published 2022).
# Entries after “also recorded” stand apart in the source; their conditions may differ. Structures can show the parent of a compound that is named as a salt. Where two headings read alike, the source gives them in different places.
# Experiments:
# [1] = system: SARS-CoV-2; experiment: microbe, parasite or virus in culture; assay type: cell-based
# [2] = system: Calu3 cells; experiment: XTT cell cytotoxicity assay in uninfected Calu3 cells; assay type: cell-based, human
# Procedure: (§1) To measure cell viability to determine if there was any treatment-induced cytotoxicity, cells were plated and treated with drugs as described above. Cells were exposed to the same dilution series created for the in vitro efficacy studies. As above, vehicle-treated cells served as the 0% cytotoxicity control. After 24 h, cell viability was measured on a Synergy 2 Biotek microplate reader (Biotek Inc) via the XTT Cell Proliferation Assay Kit (ATCC® 30-1011K™) according to the manufacturer's protocol. Similar data were obtained in three independent experiments.
# [3] = system: IL-6, IL-10; assay type: cell-based, human
# [4] = system: hACE2 HEK293T cells and ALI HAE cultures; conditions: 1000 nM
# [5] = system: icSARS-CoV-2-mNG; assay type: cell-based, SARS-CoV-2
# [6] = system: icSARS-CoV-2-mNG; assay type: cell-based, SARS-CoV-2; remark: listed apart in the source
# [7] = system: uninfected cells; experiment: XTT cell cytotoxicity assay in similarly treated uninfected cultures (Mito-TEMPO, 4F); assay type: cell-based; conditions: Mito-TEMPO 10-1000 nM
# Procedure: as §1
# [8] = system: Nrf2, Keap1, HO-1; experiment: Nrf2, Keap1 and HO-1 protein levels in Calu3 cells, flow cytometry; assay type: cell-based, human; conditions: for HO-1 protein levels: Calu3, 10 μM DMF, 100-1000 nM Mito-MES, Mito-MES with DMF, 0.25 μM Brusatol, 10 μM 4F; for protein levels of Keap (Keap1) / protein levels of Nrf2: infected and uninfected Calu3
# [9] = system: IL-6, IL-1β, IL-8, IL-10, TNF-α; assay type: cell-based, human; conditions: 0.25 μM brusatol; for release of IL-6 from infected cells: 10 μM DMF, 10-100 μM DMF+100-1000 nM Mito-MES
compound,measurement,setting,value
CCCCCCCCCC[P+](c1ccccc1)(c1ccccc1)c1ccccc1.[Br-] [dTPP],"antiviral activity, viral replication by TCID50-assay","[1]; Calu3, dTPP 1000 nM",Antiviral activity was observed
same,"cytotoxicity, XTT assay","[2]; uninfected Calu3, dTPP 1000 nM",not cytotoxic
same,secretion / release of IL-6,[3],reduced subsequent release of IL-6
same,cytotoxicity,[4],not cytotoxic
CC1(C)CC(NC(=O)C[P+](c2ccccc2)(c2ccccc2)c2ccccc2)CC(C)(C)N1[O] [Mito-TEMPO],antiviral activity against fluorescent SARS-CoV-2,[5],potent and similar antiviral activity
same,antiviral activity against fluorescent SARS-CoV-2,[6],potent and similar antiviral activity
same,"cytotoxicity, XTT cell cytotoxicity assay",[7],no observed cytotoxicity
brusatol,HO-1 protein levels,[8],increased the HO-1 protein levels
same,protein levels of Keap (Keap1),[8],increased protein levels of Keap
same,protein levels of Nrf2,[8],reduced protein levels of Nrf2
same,"percent of infected Calu3 cells positive for the N protein, flow cytometry (data not shown)","[1]; 10 nM Mito-MES+10 μM DMF, 0.25 μM brusatol",directly enhanced SARS-CoV-2 infection
same,effect of brusatol on the antiviral effect of DMF and Mito-MES,"[1]; Calu3, 0.25 μM brusatol 24 h",inhibited the antiviral effect of both DMF alone and Mito-MES
same,"release of progeny virus / SARS-CoV-2 replication, TCID50","[1]; Calu3, 0.25 μM brusatol pretreatment",significantly increased SARS-CoV2 replication; also recorded: significantly increased subsequent release of progeny SARS-CoV-2 virus particles
same,Viral replication by flow cytometry at 48 hpi in Calu3 cells,"[1]; Mito-MES 1000 nM, Brusatol 250 nM, Mito-MES 1000 nM+Brusatol 250 nM",39.9%
same,effect of brusatol on the anti-inflammatory effect of Mito-MES (IL-6),[9]; Calu3,inhibited the anti-inflammatory effect of Mito-MES
same,release of IL-6 from infected cells,[9],significantly increased subsequent release of IL-6
"COC1=C(OC)C(=O)C(C/C=C(\C)CC/C=C(\C)CC/C=C(\C)CC/C=C(\C)CC/C=C(\C)CC/C=C(\C)CC/C=C(\C)CC/C=C(\C)CC/C=C(\C)CCC=C(C)C)=C(C)C1=O [CoQ10, Coenzyme Q10]",secretion / release of IL-6,[3],reduced subsequent release of IL-6
"COC(=O)/C=C/C(=O)OC [DMF, dimethyl fumarate]",HO-1 protein levels,[8],increased protein levels of heme oxygenase-1 (HO-1)
same,protein levels of Keap (Keap1),[8],"reduced protein levels of the endogenous Nrf2 inhibitor, Keap1; also recorded: reduced protein levels of Keap"
same,protein levels of Nrf2,[8],did not impact protein levels of Nrf2
same,"release of progeny SARS-CoV-2 virus particles, TCID50 assay","[1]; Calu3, 10 μM DMF pretreatment 24 h, alone or with 10-1000 nM Mito-MES",had anti-SARS-CoV-2 activity; also recorded: reduction in subsequent release of progeny SARS-CoV-2 virus particles
same,Viral replication by flow cytometry at 48 hpi in Calu3 cells,"[1]; DMF 10 μM, Mito-MES 100 nM, Mito-MES 100 nM+DMF 10 μM, […]",5.4%
same,Viral replication by flow cytometry at 48 hpi in Calu3 cells,"[1]; DMF 100 μM, Mito-MES 100 nM+DMF 100 μM, control 9.3%",2.1%
same,"cytotoxicity, XTT cell cytotoxicity assay","[2]; 100 μM DMF, 24 h",cytotoxic
same,release of IL-6 from infected cells,[9],reduction in subsequent release of IL-6
